Experimental data: paper PMC2874095 (Journal of medicinal chemistry, 2010)
Changes are numbered by the printed parent chain. Read-outs that look alike come from different tables or passages of the source.

Key:
N1L [1] = target: T1, N1L (Vaccinia virus, UniProt P17361); format: binding
T1 sequence (P17361 1-117): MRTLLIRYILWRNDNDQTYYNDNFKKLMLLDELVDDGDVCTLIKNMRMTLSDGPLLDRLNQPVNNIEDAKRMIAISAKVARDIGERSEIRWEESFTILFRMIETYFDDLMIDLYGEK

N1L [2] = target: T1, N1L; format: binding; remark: listed apart in the source
N1L I6K = target: T2, N1L I6K (Vaccinia virus, UniProt P17361, I6K); format: binding
T2 sequence (P17361 1-117 I6K): T1 sequence (P17361 1-117) with I6K

Bcl-2 = Bcl-2 (Homo sapiens, UniProt P10415); format: binding; details: FPA, incomplete titration curves
Chain of Bcl-2 (P10415 whole entry): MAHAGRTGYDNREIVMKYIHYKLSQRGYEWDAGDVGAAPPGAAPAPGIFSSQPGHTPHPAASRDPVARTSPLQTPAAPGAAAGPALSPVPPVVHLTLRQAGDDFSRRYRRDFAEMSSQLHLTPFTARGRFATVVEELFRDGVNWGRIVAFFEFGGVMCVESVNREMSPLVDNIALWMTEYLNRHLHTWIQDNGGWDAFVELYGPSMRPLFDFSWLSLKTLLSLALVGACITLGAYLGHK

Bcl-XL = Bcl-XL (Homo sapiens, UniProt Q07817); format: binding; details: FPA, incomplete titration curves
Chain of Bcl-XL (Q07817 whole entry): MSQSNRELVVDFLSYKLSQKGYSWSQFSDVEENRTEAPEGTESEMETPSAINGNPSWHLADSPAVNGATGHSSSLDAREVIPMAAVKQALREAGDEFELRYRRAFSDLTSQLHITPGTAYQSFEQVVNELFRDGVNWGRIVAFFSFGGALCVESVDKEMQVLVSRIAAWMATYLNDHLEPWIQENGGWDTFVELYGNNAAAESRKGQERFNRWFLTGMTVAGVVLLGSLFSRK

VacV-GFP = format: cell-based, vaccinia virus
[3] = compound concentrations above 100 μM

SMILES: COc1ccc(C(C)c2cc(OC)c(OC)c(OC)c2)cc1 (centres unmarked) [Ligand 2]
- non-specific cytotoxicity (in words) (CV1 and HT1080 cells; [3]): no significant non-specific cytotoxicity

SMILES: COc1ccc(CCc2cc(OC)c(O)c(OC)c2)cc1 [Ligand 3]
- ΔH of N1L unfolding (N1L [1]): 11.0 kcal/mol

SMILES: Oc1ccc(/C=C/c2cc(O)cc(O)c2)cc1 [Ligand 4, trans-Resveratrol]
- N1L inhibition (in words) (N1L [2]): moderate N1L inhibitor
- ΔH of N1L unfolding (N1L [1]): 10.3 kcal/mol
- Tm of N1L I6K (N1L I6K): 61.1 °C
- ΔH of N1L I6K unfolding (N1L I6K): 15.9 kcal/mol

SMILES: COc1cc(C(c2ccccc2)c2ccccc2)c2ccccc2c1O [Ligand 6]
- ΔH of N1L unfolding (N1L [1]): 8.7 kcal/mol

SMILES: Oc1cc(C(c2ccccc2)c2ccccc2)c2ccccc2c1O [Ligand 7]
- binding to Bcl-2 (in words) (Bcl-2): poor ligand binding
- binding to Bcl-XL (in words) (Bcl-XL): poor ligand binding
- ΔH of N1L unfolding (N1L [1]): 12.3 kcal/mol

SMILES: COc1ccc2ccccc2c1-c1c(O)ccc2ccccc12 [Ligand 8]
- binding to Bcl-2 (in words) (Bcl-2): cross-reactivity
- binding to Bcl-XL (in words) (Bcl-XL): cross-reactivity
- antiviral activity (in words) (VacV-GFP): poor antiviral
- non-specific cytotoxicity (in words) (CV1 and HT1080 cells; absence of VacV-GFP, up to 150 μM): cytotoxicity in uninfected cells

SMILES: Oc1ccc(/C=N/c2ccccc2/N=C/c2ccc(O)c(O)c2)cc1O [Ligand 9]
- ΔH of N1L unfolding (N1L [1]): 17.8 kcal/mol
- non-specific cytotoxicity (in words) (CV1 and HT1080 cells; [3]): no significant non-specific cytotoxicity

SMILES: COc1cc(-c2ccc3cc(OC)c(OC)c(OC)c3c2)cc(OC)c1OC [Ligand 11]
- binding to Bcl-2 (in words) (Bcl-2): poor ligand binding
- binding to Bcl-XL (in words) (Bcl-XL): poor ligand binding
- effect on N1L enthalpy of unfolding (in words) (N1L [1]): increase of enthalpy of unfolding
- effect on N1L melting temperature (in words) (N1L [1]): slight decrease of melting temperature
- ΔH of N1L unfolding (N1L [1]): 20.3 kcal/mol
- non-specific cytotoxicity (in words) (CV1 and HT1080 cells; [3]): no significant non-specific cytotoxicity

SMILES: Oc1cc(Cc2ccccc2)c(Cc2ccccc2)cc1O [Ligand 12]
- ΔH of N1L unfolding (N1L [1]): 11.2 kcal/mol
